In ChEMBL document CHEMBL4837181 (Eur J Med Chem, 2020):

Experiments:
[1] = Change in Cmax in cynomolgus monkey at 825 umol/kg, po measured after 0.083 to 48 hrs by LC-MS/MS analysis; format: ADME, organism-based, Macaca fascicularis; conditions: in vivo, at 825 µmol/kg, time 0.083-48 hrs
[2] = Change in Cmax in rat at 185 umol/kg, po measured upto 72 hrs by LC-MS/MS analysis; format: ADME, organism-based; conditions: in vivo, at 185 µmol/kg
[3] = Cmax in male cynomolgus monkey at 150 mg/kg, po BID measured on day 8; format: ADME, organism-based, Macaca fascicularis; parameters: route oral, dose 150 mg/kg; conditions: in vivo
[4] = Change in Cmax in rat at 37 umol/kg, po measured upto 72 hrs by LC-MS/MS analysis; format: ADME, organism-based; conditions: in vivo, at 37 µmol/kg
[5] = Tmax in male cynomolgus monkey at 150 mg/kg, po BID measured on day 8; format: ADME, organism-based, Macaca fascicularis; conditions: in vivo
[6] = Half life in male cynomolgus monkey at 675 mg/kg, po measured on day 1; format: ADME, organism-based, Macaca fascicularis; conditions: in vivo
[7] = AUC (0 to 24 hrs) in female cynomolgus monkey at 675 mg/kg, po measured on day 1; format: ADME, organism-based, Macaca fascicularis; parameters: time < 24 hr, route oral, dose 675 mg/kg; conditions: in vivo
[8] = Half life in male cynomolgus monkey at 150 mg/kg, po BID measured on day 8; format: ADME, organism-based, Macaca fascicularis; conditions: in vivo
[9] = Tmax in female cynomolgus monkey at 75 mg/kg, po measured on day 8; format: ADME, organism-based, Macaca fascicularis; conditions: in vivo
[10] = Cmax in male cynomolgus monkey at 75 mg/kg, po BID measured on day 8; format: ADME, organism-based, Macaca fascicularis; parameters: route oral, dose 75 mg/kg; conditions: in vivo
[11] = Cmax in female cynomolgus monkey at 675 mg/kg, po measured on day 1; format: ADME, organism-based, Macaca fascicularis; parameters: route oral, dose 675 mg/kg; conditions: in vivo
[12] = Tmax in female cynomolgus monkey at 675 mg/kg, po measured on day 1; format: ADME, organism-based, Macaca fascicularis; conditions: in vivo
[13] = Change in AUC(infinity) in cynomolgus monkey at 275 umol/kg, po measured after 0.083 to 48 hrs by LC-MS/MS analysis; format: ADME, organism-based, Macaca fascicularis; conditions: in vivo, at 275 µmol/kg, time 0.083-48 hrs
[14] = Tmax in male cynomolgus monkey at 225 mg/kg, po measured on day 1; format: ADME, organism-based, Macaca fascicularis; conditions: in vivo
[15] = AUC (0 to 24 hrs) in male cynomolgus monkey at 150 mg/kg, po BID measured on day 8; format: ADME, organism-based, Macaca fascicularis; parameters: time < 24 hr, route oral, dose 150 mg/kg; conditions: in vivo
[16] = Change in AUC (infinity) in rat at 37 umol/kg, po measured upto 72 hrs by LC-MS/MS analysis; format: ADME, organism-based; conditions: in vivo, at 37 µmol/kg
[17] = AUC (0 to 24 hrs) in female cynomolgus monkey at 75 mg/kg, po measured on day 1; format: ADME, organism-based, Macaca fascicularis; parameters: time < 24 hr, route oral, dose 75 mg/kg; conditions: in vivo
[18] = Tmax in female cynomolgus monkey at 375 mg/kg, po BID measured on day 8; format: ADME, organism-based, Macaca fascicularis; conditions: in vivo
[19] = Cmax in female cynomolgus monkey at 375 mg/kg, po BID measured on day 8; format: ADME, organism-based, Macaca fascicularis; parameters: route oral, dose 375 mg/kg; conditions: in vivo
[20] = Half life in female cynomolgus monkey at 675 mg/kg, po measured on day 1; format: ADME, organism-based, Macaca fascicularis; conditions: in vivo
[21] = AUC (0 to 24 hrs) in male cynomolgus monkey at 225 mg/kg, po measured on day 1; format: ADME, organism-based, Macaca fascicularis; parameters: time < 24 hr, route oral, dose 225 mg/kg; conditions: male, in vivo
[22] = Change in Cmax in cynomolgus monkey at 92 umol/kg, po measured after 0.083 to 48 hrs by LC-MS/MS analysis; format: ADME, organism-based, Macaca fascicularis; conditions: in vivo, at 92 µmol/kg, time 0.083-48 hrs
[23] = Cmax in male cynomolgus monkey at 225 mg/kg, po measured on day 1; format: ADME, organism-based, Macaca fascicularis; parameters: route oral, dose 225 mg/kg; conditions: in vivo
[24] = Dose normalized Cmax in rat at 10 mg/kg, po measured upto 72 hrs by LC-MS/MS analysis; format: ADME, organism-based; conditions: in vivo
[25] = Change in Cmax in cynomolgus monkey at 275 umol/kg, po measured after 0.083 to 48 hrs by LC-MS/MS analysis; format: ADME, organism-based, Macaca fascicularis; conditions: in vivo, at 275 µmol/kg, time 0.083-48 hrs
[26] = Change in AUC(infinity) in cynomolgus monkey at 825 umol/kg, po measured after 0.083 to 48 hrs by LC-MS/MS analysis; format: ADME, organism-based, Macaca fascicularis; conditions: in vivo, at 825 µmol/kg, time 0.083-48 hrs
[27] = Half life in female cynomolgus monkey at 150 mg/kg, po measured on day 8; format: ADME, organism-based, Macaca fascicularis; conditions: in vivo
[28] = Half life in mouse at 287 micromol/kg administered as single dose; format: ADME; conditions: in vivo, dose 287 µmol/kg
[29] = Cmax in female cynomolgus monkey at 15 mg/kg, iv measured on day 1; format: ADME, organism-based, Macaca fascicularis; parameters: route intravenous, dose 15 mg/kg; conditions: in vivo
[30] = Half life in mouse at 1147 micromol/kg administered as single dose; format: ADME; conditions: in vivo, dose 1147 µmol/kg
[31] = Change in Cmax in rat at 500 umol/kg, po measured upto 72 hrs by LC-MS/MS analysis; format: ADME, organism-based; conditions: in vivo, at 500 µmol/kg
[32] = Half life in mouse at 573 micromol/kg administered as single dose; format: ADME; conditions: in vivo, dose 573 µmol/kg
[33] = Change in normalised AUCinfinity in rat at 10 mg/kg, po measured upto 72 hrs by LC-MS/MS analysis; format: ADME, organism-based; conditions: in vivo
[34] = Cmax in male cynomolgus monkey at 675 mg/kg, po measured on day 1; format: ADME, organism-based, Macaca fascicularis; parameters: route oral, dose 675 mg/kg; conditions: in vivo
[35] = Tmax in male cynomolgus monkey at 75 mg/kg, po BID measured on day 8; format: ADME, organism-based, Macaca fascicularis; conditions: in vivo
[36] = AUC (0 to 24 hrs) in female cynomolgus monkey at 150 mg/kg, po BID measured on day 8; format: ADME, organism-based, Macaca fascicularis; parameters: time < 24 hr, route oral, dose 150 mg/kg; conditions: in vivo
[37] = Tmax in male cynomolgus monkey at 675 mg/kg, po measured on day 1; format: ADME, organism-based, Macaca fascicularis; conditions: in vivo
[38] = Half life in mouse at 143 micromol/kg administered as single dose; format: ADME; conditions: in vivo, dose 143 µmol/kg
[39] = Tmax in mouse at 287 micromol/kg administered as single dose; format: ADME; conditions: in vivo, dose 287 µmol/kg
[40] = AUC (0 to 12 hrs) in po BID dosed cynomolgus monkey administered for 28 days; format: ADME, organism-based, Macaca fascicularis; parameters: route oral, time 28 day; conditions: in vivo
[41] = Change in AUC(infinity) in cynomolgus monkey at 92 umol/kg, po measured after 0.083 to 48 hrs by LC-MS/MS analysis; format: ADME, organism-based, Macaca fascicularis; conditions: in vivo, at 92 µmol/kg, time 0.083-48 hrs
[42] = Cmax in female cynomolgus monkey at 150 mg/kg, po measured on day 8; format: ADME, organism-based, Macaca fascicularis; parameters: route oral, dose 150 mg/kg; conditions: in vivo
[43] = Cmax in male cynomolgus monkey at 15 mg/kg, iv measured on day 1; format: ADME, organism-based, Macaca fascicularis; parameters: route intravenous, dose 15 mg/kg; conditions: in vivo
[44] = Dose normalized AUC (0 to infinity) in rat at 10 mg/kg, po measured upto 72 hrs by LC-MS/MS analysis; format: ADME, organism-based; conditions: in vivo
[45] = AUC (0 to 24 hrs) in male cynomolgus monkey at 675 mg/kg, po measured on day 1; format: ADME, organism-based, Macaca fascicularis; parameters: time < 24 hr, route oral, dose 675 mg/kg; conditions: in vivo
[46] = Drug accumulation in rat at 100 to 900 mg/kg, po BID; format: ADME, organism-based; conditions: in vivo, dose 100-900 mg/kg
[47] = Change in AUC(infinity) in rat at 500 umol/kg, po measured upto 72 hrs by LC-MS/MS analysis; format: ADME, organism-based; conditions: in vivo, at 500 µmol/kg
[48] = Drug accumulation in monkey at 75 to 375 mg/kg, po BID; format: ADME, organism-based, Macaca mulatta; conditions: rhesus monkey, in vivo, dose 75-375 mg/kg
[49] = Change in normalised Cmax in rat at 10 mg/kg, po measured upto 72 hrs by LC-MS/MS analysis; format: ADME, organism-based; conditions: in vivo
[50] = Cmax in female cynomolgus monkey at 75 mg/kg, po BID measured on day 8; format: ADME, organism-based, Macaca fascicularis; parameters: route oral, dose 75 mg/kg; conditions: in vivo
[51] = Cmax in female cynomolgus monkey at 75 mg/kg, po measured on day 1; format: ADME, organism-based, Macaca fascicularis; parameters: route oral, dose 75 mg/kg; conditions: in vivo

Cn1cc(C[C@@H](N)C(=O)O)c2ccccc21 [INDOXIMOD]
Activity [1]: 0% | Activity [2]: 0% | Cmax [3]: 93.4 µM | Activity [4]: 0% | Tmax [5]: 2 h | half-life [6]: 4.3 h | AUC [7]: 6450 µM·h | half-life [8]: 2.8 h | Tmax [9]: 1 h | Cmax [10]: 47.3 µM | Cmax [11]: 387 µM | Tmax [12]: 2 h | Activity [13]: 0% | Tmax [14]: 2 h | AUC at 24 h [15]: 509 µM·h | Activity [16]: 0% | AUC(0-t) at 24 h [17]: 177 µM·h | Tmax [18]: 2.5 h | Cmax [19]: 203 µM | half-life [20]: 10.2 h | AUC(0-t) at 24 h [21]: 525 µM·h | Activity [22]: 0% | Cmax [23]: 97.7 µM | Cmax/dose [24]: 17.3 µM | Activity [25]: 0% | Activity [26]: 0% | half-life [27]: 2.7 h | half-life [28]: 2.8 h | Cmax [29]: 43.1 µM | half-life [30]: 3.4 h | Activity [31]: 0% | half-life [32]: 3.1 h | Activity [33]: 0% | Cmax [34]: 311 µM | Tmax [35]: 1 h | AUC at 24 h [36]: 403 µM·h | Tmax [37]: 4 h | half-life [38]: 3 h | Tmax [39]: 0.6 h | AUC at 672 h [40]: 320 µM·h | Activity [41]: 0% | Cmax [42]: 79 µM | Cmax [43]: 39.5 µM | AUC/dose [44]: 508 µM·h | AUC [45]: 4470 µM·h | Drug metabolism [46]: Metabolite_Notdetected | Activity [47]: 0% | Drug metabolism [48]: Metabolite_Notdetected | Activity [49]: 0% | Cmax [50]: 59.3 µM | Cmax [51]: 55 µM

CCOC(=O)[C@@H](Cc1cn(C)c2ccccc12)NC(=O)[C@@H](N)CC(C)C.Cl
Activity [1]: 230% | Activity [2]: 112% | Cmax [3]: 0.0171 µM | Activity [4]: 92% | Tmax [5]: 2 h | half-life [6]: 9.7 h | AUC [7]: 0.966 µM·h | half-life [8]: 8.5 h | Tmax [9]: 2 h | Cmax [10]: 0.00774 µM | Cmax [11]: 0.0759 µM | Tmax [12]: 1 h | Activity [13]: 518% | Tmax [14]: 3 h | AUC at 24 h [15]: 0.0806 µM·h | Activity [16]: 70% | AUC(0-t) at 24 h [17]: 0.0287 µM·h | Tmax [18]: 2 h | Cmax [19]: 0.403 µM | half-life [20]: 9.7 h | AUC(0-t) at 24 h [21]: 0.0602 µM·h | Activity [22]: 518% | Cmax [23]: 0.0126 µM | Cmax/dose [24]: 16.2 µM | Activity [25]: 476% | Activity [26]: 416% | half-life [27]: 3 h | half-life [28]: 2.2 h | Cmax [29]: 0.135 µM | half-life [30]: 3.2 h | Activity [31]: 5% | half-life [32]: 3.1 h | Activity [33]: 75% | Cmax [34]: 0.148 µM | Tmax [35]: 1 h | AUC at 24 h [36]: 0.057 µM·h | Tmax [37]: 2 h | half-life [38]: 2.9 h | Tmax [39]: 0.5 h | AUC at 672 h [40]: 320 µM·h | Activity [41]: 195% | Cmax [42]: 0.0105 µM | Cmax [43]: 0.135 µM | AUC/dose [44]: 888 µM·h | AUC [45]: 0.966 µM·h | Drug metabolism [46]: Metabolite_Notdetected | Activity [47]: 15% | Drug metabolism [48]: Metabolite_Notdetected | Activity [49]: 24% | Cmax [50]: 0.00971 µM | Cmax [51]: 0.00846 µM
